Experimental data taken from patent publication US20110098323A1, “INHIBITORS OF BACTERIAL BIOFILM FORMATION” (MICROBIOTIX, INC., priority 2009, published 2011).
Read-outs that look alike come from different tables or passages of the source.

How the values were obtained:
S. epidermidis 18972 = assay: MBIC/MIC secondary assay (crystal violet biofilm staining / OD600 growth); format: cell-based, Staphylococcus epidermidis; settings: for MIC: Staphylococcus epidermidis
Experimental: (§1) Assays for detecting and measuring bacterial biofilm formation are known in the art. An example of a biofilm formation assay useful in detecting and characterizing biofilm inhibitor compounds is described in Example 1, infra. Briefly, bacterial cells are inoculated into growth medium in individual wells of a 96-well assay plate in the presence or absence of a compound (known biofilm inhibitor or test compound). After incubation for a specified time, growth medium and non-biofilm bacterial cells are removed from each of the wells. The bacterial cells in any biofilms that are adhered to the surface of a well are fixed by addition of ethanol. The ethanol is removed, and the fixed biofilm bacteria cells are stained with crystal violet (CV). The intensity of CV staining is directly correlated with bacterial biofilm formation and is measured in the wells by reading the optical density at 600 nm (OD600). The difference in biofilm formation between untreated control and treated cultures provides an indication of relative biofilm inhibition activity (anti-biofilm activity). Use of different concentrations of an inhibitor in multiple and otherwise duplicate cultures permits determination of a compound's Minimal Biofilm Inhibitory Concentration (MBIC), which is defined herein as the lowest concentration of a compound that inhibits biofilm formation by at least 80% (i.e., ≧80%) compared to untreated control cultures.
(§2) A higher throughput was achieved by formatting the assay for use in flat-bottomed 96-well assay plates (Costar 3590 assay plates, Corning Life Sciences, Lowell, Mass.). The biofilm cultures grew on the bottoms of each well in a surface attached mode. In each assay plate, columns 1 and 12 contained untreated cultures, which served as negative controls (0% biofilm inhibition). Each of the assay wells in columns 2-11 contained a unique small molecule from the Microbiotix Screening Library (MSL) at a final concentration of 100 μM. Assay plates were inoculated with 200 μl/well of a culture of Staphylococcus pidermidis 18972 in 0.5×Tryptic Soy Broth (TSB; Becton Dickinson, Franklin Lakes, N.J.) in which the concentration of glucose was adjusted to 0.25% (w/v). The bacterial inocula were prepared by making a 1:100 dilution of an overnight culture grown in TSB in the media used for the screen. After inoculation, assay plates were sealed with foil tape and incubated at 37° C. for 18-20 hours (h). The optical density at 600 nm (OD600) was measured for each well using a VICTOR2V™ multiplate reader (Perkin Elmer, Waltham, Mass.) in order to quantify overall bacterial growth. The assay plates were processed to remove bacterial growth media and non-biofilm cells from the bottom of each assay well. This was accomplished by using a BioTek ELx405™ plate washer (BioTek Instruments, Inc., Winooski, Vt.). Biofilm bacteria were fixed by addition of 50 μl of 95% ethanol for 30 minutes (min). The ethanol was removed, and the fixed biofilm cultures were stained with 50 μl of 0.06% crystal violet (CV) for 60 min. Excess CV was removed by repeated washes using the BioTek ELx405™ plate washer. The amount of CV bound to each assay well was quantified by measuring OD600 using a VICTOR2V™ plate reader (Perkin Elmer).
(§3) A secondary assay provided a quantitative measure of both anti-biofilm activity and antibacterial activity in terms of the Minimal Biofilm Inhibitory Concentration (MBIC) and the Minimal Inhibitory Concentration (MIC), respectively. The MBIC and MIC are defined as the lowest compound concentrations that inhibit biofilm formation and bacterial growth, respectively, by at least 80% (i.e., ≧80%). The MBIC/MIC assay is formatted in a manner that is similar to the Microbroth dilution assays described by the Clinical and Laboratory Standards Institute (CLSI; formerly NCCLS) in protocol M7-A7. The growth conditions were optimized for biofilm growth in 96-well assay plates such that the resulting CV staining was within the linear range of detection. […]

[1] = tested on: S. epidermidis strain 1457; assay: MBIC/MIC secondary assay; format: cell-based, Staphylococcus epidermidis; settings: for MIC: Staphylococcus epidermidis
Experimental: as §1, §2, §3

[2] = tested on: S. epidermidis strain 35894; assay: MBIC/MIC secondary assay; format: cell-based, Staphylococcus epidermidis; settings: for MIC: Staphylococcus epidermidis
Experimental: as §1, §2, §3

[3] = tested on: S. epidermidis strain O47; assay: MBIC/MIC secondary assay; format: cell-based, Staphylococcus epidermidis; settings: for MIC: Staphylococcus epidermidis
Experimental: as §1, §2, §3

S. aureus ATCC 35556 = assay: MBIC/MIC secondary assay; format: cell-based, Staphylococcus aureus; settings: for MIC: Staphylococcus aureus, ATCC35556
[4] = S. epidermidis strain 18972, Table 4
[5] = S. aureus strain 35556, Table 5

| SMILES | MBIC (S. epidermidis 18972; [4]) [µM] | MIC (S. epidermidis 18972; 18972) [µM] | MBIC ([1]; S. epidermidis strain 1457) | MIC [1]; 1457 [µM] | MBIC ([2]; S. epidermidis strain 35894) [µM] | MIC [2]; 35894 [µM] | MBIC ([3]; S. epidermidis strain O47) [µM] | MIC ([3]; O47) [µM] | MBIC (S. aureus ATCC 35556; [5]) [µM] | MIC (S. aureus ATCC 35556) [µM] | MBIC (S. aureus ATCC 35556; S. aureus ATCC 35556, stated in text of Examples 5 and 6) [µM] | MIC (S. epidermidis 18972; S. epidermidis strain 18972, Table 4, read-out: MIC) [µM] | MIC ([1]; S. epidermidis strain 1457, read-out: MIC) [µM] | MIC ([2]; S. epidermidis strain 35894, read-out: MIC) [µM] | MIC ([3]; S. epidermidis strain O47, read-out: MIC) [µM] | MIC (S. aureus ATCC 35556; S. aureus strain 35556, Table 5, read-out: MIC) [µM] |
| --- | --- | --- | --- | --- | --- | --- | --- | --- | --- | --- | --- | --- | --- | --- | --- | --- |
| CCOc1cc(/C=C2\SC(=S)N(c3cccc(F)c3)C2=O)ccc1O [Compound 8, 3-(3-fluorophenyl)-5-(3-ethoxy-4-hydroxybenzylidene)-2-thioxothiazolidin-4-one] | 50 | ≥ 100 | 50 µM | ≥ 100 | 25 | ≥ 100 | 25 | ≥ 100 | 6.3 | ≥ 100 |  |  |  |  |  |  |
| CCOc1cc(/C=C2\SC(=S)N(c3cccnc3)C2=O)ccc1O [Compound 36, 3-(pyridin-3-yl)-5-(3-ethoxy-4-hydroxybenzylidene)-2-thioxothiazolidin-4-one] | 12.5 | ≥ 100 | 12.5 µM | ≥ 100 | 12.5 | ≥ 100 | 50 | ≥ 100 | 12.5 | ≥ 100 |  |  |  |  |  |  |
| CCOc1cc(/C=C2\SC(=S)N(c3ccc(F)cc3)C2=O)ccc1O [Compound 4, 3-(4-fluorophenyl)-5-(3-ethoxy-4-hydroxybenzylidene)-2-thioxothiazolidin-4-one] | 25 | ≥ 100 | 50 µM | ≥ 100 | 25 | ≥ 100 | 12.5 | ≥ 100 | 3.1 | ≥ 100 | 3.125 |  |  |  |  |  |
| CCOc1cc(/C=C2\SC(=S)N(c3cccc(C#N)c3)C2=O)ccc1O [Compound 34, 3-(3-cyanophenyl)-5-(3-ethoxy-4-hydroxybenzylidene)-2-thioxothiazolidin-4-one] | 25 | ≥ 100 | ≧100 μM | ≥ 100 | 12.5 | ≥ 100 | 1.6 | ≥ 100 | 1.6 | ≥ 100 |  |  |  |  |  |  |
| CCOc1cc(/C=C2\SC(=S)N(c3ccc(F)nc3)C2=O)ccc1O [Compound 40, 3-(6-fluoropyridin-3-yl)-5-(3-ethoxy-4-hydroxybenzylidene)-2-thioxothiazolidin-4-one] | 25 | ≥ 100 | 25 µM | ≥ 100 | 6.3 | ≥ 100 | 6.3 | ≥ 100 | 6.3 | ≥ 100 |  |  |  |  |  |  |
| C=CCOc1cc(/C=C2\SC(=S)N(c3ccc(F)cc3)C2=O)ccc1O [Compound 29, 3-(4-fluorophenyl)-5-(3-allyloxy-4-hydroxybenzylidene)-2-thioxothiazolidin-4-one] | 25 |  | 25 µM |  | 25 |  | 12.5 |  | 3.1 |  |  | ≥ 100 | ≥ 100 | ≥ 100 | ≥ 100 | ≥ 100 |
